Results from US8192962B2, “Processes for detecting toxic substances” (Daikin Industries, Ltd., priority 2001, dated 2012).

Test system: Mitochondria-located protein genes
Test: DNA chip mRNA expression in yeast, mitochondria-located protein genes (Table 2)
Assay type: cell-based, Saccharomyces cerevisiae S288C
Details: cells incubated two hours with the chemical substance
Summary of the method: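 Expression change after 2 h toxicant exposure (growth-inhibiting, sub-lethal) of log-phase S. cerevisiae S288C at 25° C. Oligo-dT-purified mRNA was labeled with Cy3-dUTP or Cy5-dUTP and hybridized >12 h at 65° C. to a genome-wide chip; ratio of scanned fluorescence to control.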

N#Cc1c(Cl)c(Cl)c(Cl)c(C#N)c1Cl [(9), 2,4,5,6-tetrachloro-1,3-benzenedicarbonitrile]
The level of expressed mRNA in the presence of chemical substance/The level of expressed mRNA in the absence of chemical substance (yeast gene YJR121W): 0.8 | The level of expressed mRNA in the presence of chemical substance/The level of expressed mRNA in the absence of chemical substance (yeast gene YKL003C): 1.5 | The level of expressed mRNA in the presence of chemical substance/The level of expressed mRNA in the absence of chemical substance (yeast gene YKL016C): 1.3 | The level of expressed mRNA in the presence of chemical substance/The level of expressed mRNA in the absence of chemical substance (yeast gene YKL141W): 0.8 | The level of expressed mRNA in the presence of chemical substance/The level of expressed mRNA in the absence of chemical substance (yeast gene YKL142W): 5.8 | The level of expressed mRNA in the presence of chemical substance/The level of expressed mRNA in the absence of chemical substance (yeast gene YKL148C): 1.7 | The level of expressed mRNA in the presence of chemical substance/The level of expressed mRNA in the absence of chemical substance (yeast gene YKL170W): 0.9 | The level of expressed mRNA in the presence of chemical substance/The level of expressed mRNA in the absence of chemical substance (yeast gene YKL194C): 1.3 | The level of expressed mRNA in the presence of chemical substance/The level of expressed mRNA in the absence of chemical substance (yeast gene YKR066C): 0.7 | The level of expressed mRNA in the presence of chemical substance/The level of expressed mRNA in the absence of chemical substance (yeast gene YLL041C): 0.7 | The level of expressed mRNA in the presence of chemical substance/The level of expressed mRNA in the absence of chemical substance (yeast gene YLR038C): 0.4 | The level of expressed mRNA in the presence of chemical substance/The level of expressed mRNA in the absence of chemical substance (yeast gene YLR259C): 1.8 | The level of expressed mRNA in the presence of chemical substance/The level of expressed mRNA in the absence of chemical substance (yeast gene YLR295C): 1.4 | The level of expressed mRNA in the presence of chemical substance/The level of expressed mRNA in the absence of chemical substance (yeast gene YLR304C): 0.1 | The level of expressed mRNA in the presence of chemical substance/The level of expressed mRNA in the absence of chemical substance (yeast gene YLR348C): 2.1 | The level of expressed mRNA in the presence of chemical substance/The level of expressed mRNA in the absence of chemical substance (yeast gene YLR395C): 1.0 | The level of expressed mRNA in the presence of chemical substance/The level of expressed mRNA in the absence of chemical substance (yeast gene YML054C): 4.1 | The level of expressed mRNA in the presence of chemical substance/The level of expressed mRNA in the absence of chemical substance (yeast gene YML120C): 1.3 | The level of expressed mRNA in the presence of chemical substance/The level of expressed mRNA in the absence of chemical substance (yeast gene YML129C): 1.4 | The level of expressed mRNA in the presence of chemical substance/The level of expressed mRNA in the absence of chemical substance (yeast gene YMR023C): 1.5 | The level of expressed mRNA in the presence of chemical substance/The level of expressed mRNA in the absence of chemical substance (yeast gene YMR035W): 1.7 | The level of expressed mRNA in the presence of chemical substance/The level of expressed mRNA in the absence of chemical substance (yeast gene YMR083W): 0.4 | The level of expressed mRNA in the presence of chemical substance/The level of expressed mRNA in the absence of chemical substance (yeast gene YMR089C): 5.6 | The level of expressed mRNA in the presence of chemical substance/The level of expressed mRNA in the absence of chemical substance (yeast gene YMR152W): 2.7 | The level of expressed mRNA in the presence of chemical substance/The level of expressed mRNA in the absence of chemical substance (yeast gene YMR203W): 0.7 | The level of expressed mRNA in the presence of chemical substance/The level of expressed mRNA in the absence of chemical substance (yeast gene YMR267W): 0.4 | The level of expressed mRNA in the presence of chemical substance/The level of expressed mRNA in the absence of chemical substance (yeast gene YNL055C): 1.1 | The level of expressed mRNA in the presence of chemical substance/The level of expressed mRNA in the absence of chemical substance (yeast gene YNL071W): 1.1 | The level of expressed mRNA in the presence of chemical substance/The level of expressed mRNA in the absence of chemical substance (yeast gene YNL073W): 0.9 | The level of expressed mRNA in the presence of chemical substance/The level of expressed mRNA in the absence of chemical substance (yeast gene YNL104C): 1.1 | The level of expressed mRNA in the presence of chemical substance/The level of expressed mRNA in the absence of chemical substance (yeast gene YNL256W): 0.8 | The level of expressed mRNA in the presence of chemical substance/The level of expressed mRNA in the absence of chemical substance (yeast gene YOL096C): 1.3 | The level of expressed mRNA in the presence of chemical substance/The level of expressed mRNA in the absence of chemical substance (yeast gene YOR020C): 5.8 | The level of expressed mRNA in the presence of chemical substance/The level of expressed mRNA in the absence of chemical substance (yeast gene YOR037W): 1.3 | The level of expressed mRNA in the presence of chemical substance/The level of expressed mRNA in the absence of chemical substance (yeast gene YOR100C): 2.0 | The level of expressed mRNA in the presence of chemical substance/The level of expressed mRNA in the absence of chemical substance (yeast gene YOR130C): 2.0 | The level of expressed mRNA in the presence of chemical substance/The level of expressed mRNA in the absence of chemical substance (yeast gene YOR142W): 1.1 | The level of expressed mRNA in the presence of chemical substance/The level of expressed mRNA in the absence of chemical substance (yeast gene YOR150W): 0.8 | The level of expressed mRNA in the presence of chemical substance/The level of expressed mRNA in the absence of chemical substance (yeast gene YOR176W): 1.0 | The level of expressed mRNA in the presence of chemical substance/The level of expressed mRNA in the absence of chemical substance (yeast gene YOR187W): 0.6 | The level of expressed mRNA in the presence of chemical substance/The level of expressed mRNA in the absence of chemical substance (yeast gene YOR316C): 1.6 | The level of expressed mRNA in the presence of chemical substance/The level of expressed mRNA in the absence of chemical substance (yeast gene YPL040C): 0.2 | The level of expressed mRNA in the presence of chemical substance/The level of expressed mRNA in the absence of chemical substance (yeast gene YPL134C): 0.6 | The level of expressed mRNA in the presence of chemical substance/The level of expressed mRNA in the absence of chemical substance (yeast gene YPL135W): 0.5 | The level of expressed mRNA in the presence of chemical substance/The level of expressed mRNA in the absence of chemical substance (yeast gene YPL215W): 1.7 | The level of expressed mRNA in the presence of chemical substance/The level of expressed mRNA in the absence of chemical substance (yeast gene YPL262W): 1.4 | The level of expressed mRNA in the presence of chemical substance/The level of expressed mRNA in the absence of chemical substance (yeast gene YPR024W): 3.0 | The level of expressed mRNA in the presence of chemical substance/The level of expressed mRNA in the absence of chemical substance (yeast gene YPR037C): 1.5 | The level of expressed mRNA in the presence of chemical substance/The level of expressed mRNA in the absence of chemical substance (yeast gene YPR047W): 2.1 | The level of expressed mRNA in the presence of chemical substance/The level of expressed mRNA in the absence of chemical substance (yeast gene YPR134W): 1.8
